Results published in ChEMBL document CHEMBL3217643, “Discovery of hydroxamate bioisosteres as KAT II inhibitors with improved oral bioavailability and pharmacokinetics” (Medchemcomm, 2013).
pIC50, pKi: −log10 of the molar value.

Assays:
[1] = target: T1, Kynurenine/alpha-aminoadipate aminotransferase, mitochondrial (Homo sapiens, UniProt Q8N5Z0); experiment: Ratio of Kinact to Ki for KAT2 (unknown origin)
Target sequence in this assay (Q8N5Z0 30-425 limits assumed): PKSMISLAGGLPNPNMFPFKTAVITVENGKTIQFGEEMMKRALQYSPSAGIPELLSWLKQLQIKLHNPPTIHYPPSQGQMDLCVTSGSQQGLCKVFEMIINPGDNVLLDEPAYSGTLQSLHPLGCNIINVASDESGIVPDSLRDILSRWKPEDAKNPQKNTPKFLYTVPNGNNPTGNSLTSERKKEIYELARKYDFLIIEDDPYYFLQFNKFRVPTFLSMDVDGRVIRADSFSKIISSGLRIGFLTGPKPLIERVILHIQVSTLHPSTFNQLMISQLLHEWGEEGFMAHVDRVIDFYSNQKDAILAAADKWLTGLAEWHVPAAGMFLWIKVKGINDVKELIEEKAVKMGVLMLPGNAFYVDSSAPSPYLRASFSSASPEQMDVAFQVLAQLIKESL

[2] = target: T1, Kynurenine/alpha-aminoadipate aminotransferase, mitochondrial; experiment: Inhibition of KAT2 (unknown origin)
[3] = Drug degradation assessed as metabolite formation by LC-MS/MS analysis; format: physicochemical
[4] = Drug uptake in CD-1 mouse cerebral spinal fluid; format: ADME, Cerebrospinal fluid; conditions: in vivo
Brain = experiment: Drug uptake in CD-1 mouse brain; format: ADME, tissue-based; conditions: in vivo
P-gp = experiment: Efflux ratio in MDCK cells overexpressing Pgp; format: ADME, cell-based, Canis lupus familiaris; conditions: dog, MDCK-MDR1
[5] = Oral bioavailability in dog; format: ADME, organism-based, Canis lupus familiaris; conditions: in vivo
[6] = Oral bioavailability in rat; format: ADME, organism-based; conditions: in vivo
[7] = Blood clearance in iv dosed dog; format: ADME, organism-based, Canis lupus familiaris
[8] = Blood clearance in iv dosed rat; format: ADME, organism-based
[9] = Half life in human hepatocytes; format: ADME, cell-based, Hepatocyte
[10] = Half life in human liver microsomes; format: ADME

Ratio [1] [M⁻¹ s⁻¹] | pIC50 [2] | pKi [2] | Kinact [2] [min⁻¹] | Retention_time [3] [min] | Drug uptake [4] | Drug uptake (Brain) | efflux ratio (P-gp) | bioavailability [5] [%] | bioavailability [6] [%] | clearance [7] [mL/min/kg] | clearance [8] [mL/min/kg] | half-life [9] [h] | half-life [10] [h] | Compound
2920 | 6.70 | 7.09 | 0.0141 |  |  |  |  |  |  |  |  |  |  | COc1cccc(Oc2ccc3c(c2)CC(N)c2nncn2-3)c1 (stereo not given)
5060 | 7.19 | 8.29 | 0.0155 | 31.8 | Active | Active | 1.51 | 100 | 40 | 4.5 | 78.4 | 1.9 | > 1.73 | COc1cccc(Oc2ccc3c(c2)CC(N)c2n[nH]c(=O)n2-3)c1 (stereo not given)
 |  |  |  |  |  |  |  | 18.5 | 10.8 |  |  |  |  | N[C@H]1Cc2ccccc2N(O)C1=O
